Measured values taken from patent publication US11504364B2, “Inhibitors of fibroblast activation protein” (Praxis Biotech LLC, priority 2018, dated 2022).
Like-named read-outs stand apart in the source and are kept apart here.

Experiments:
[1] = system: human AML cell line MV4-11; test: Cytotoxicity assay in human leukemia cell lines (Cell-Titer Glo)
[2] = molecular target: T1, recombinant human DPP9 (rhDPP9) (Homo sapiens (Human), UniProt Q86TI2); test: Inhibition of DPP9 activity, 10 ng rhDPP9, H-Gly-Pro-AMC; assay type: biochemical; conditions: Table 3B
[3] = molecular target: circulating FAPα from hamster plasma (Mesocricetus auratus, UniProt A0ABM2XF29); test: Ex vivo inhibition of circulating FAPα activity in hamster plasma (PRXS-AMC); assay type: biochemical, Golden Syrian hamster; conditions: PRXS-AMC substrate
Experimental: Male Golden Syrian hamsters were provided by National Laboratory Animal Center (NLAC) in Taiwan. The animals were maintained in a hygienic environment under controlled temperature (20-24° C.) and humidity (50%-80%) with 12 hours light/dark cycles. Free access to standard lab diet [MFG (Oriental Yeast Co., Ltd. Japan)] and autoclaved tap water were granted. All aspects of this work including housing, experimentation and disposal of animals were performed in general accordance with the “Guide for the Care and Use of Laboratory Animals: Eighth Edition” (National Academies Press, Washington, D.C., 2011). In addition, the animal care and use protocol was reviewed and approved by the IACUC at Pharmacology Discovery Services Taiwan, Ltd. Immediately after the sacrifice of hamsters, blood samples were collected via terminal cardiac puncture in tubes coated with EDTA-K2, mixed gently, then kept on ice and centrifuged at 2,500×g for 15 minutes at 4° C. After plasma separation, samples were stored at −80° C. in aliquots of […]. To assay exemplary compounds in hamster plasma, a similar protocol as described for human plasma was performed diluting thawed plasma 1:2 in assay buffer. […] AMC release was detected measuring fluorescence at an excitation/emission wavelength of 380/460 nm using a Multifunction Microplate Reader. […]

[4] = molecular target: T1, recombinant human DPP9 (rhDPP9); test: DPP9 enzymatic activity assay; assay type: biochemical; conditions: Table 3A
[5] = molecular target: recombinant human FAPα (rhFAPα) (Homo sapiens (Human), UniProt Q12884); test: FAPα enzymatic exopeptidase (dipeptidase) activity assay, Z-Gly-Pro-AMC; assay type: biochemical; conditions: for inhibition at 1 µM / rhFAPα (% exo inh @ 1 μM): 1 μM test compound, exopeptidase; for inhibition at 1 µM: read-out: rhFAPα (% exo inh @ 1 μM)
[6] = molecular target: recombinant human DPPIV (rhDPPIV) (Homo sapiens (Human), UniProt P27487); test: DPPIV enzymatic activity assay; assay type: biochemical; conditions: Table 3B
[7] = molecular target: recombinant human PREP (rhPREP) (Homo sapiens (Human), UniProt P48147); test: PREP enzymatic activity assay; assay type: biochemical; conditions: Table 3B
[8] = molecular target: recombinant mouse FAPα (rmFAPα) (Mus musculus (Mouse), UniProt P97321); test: FAPα enzymatic exopeptidase (dipeptidase) activity assay, Z-Gly-Pro-AMC; assay type: biochemical; conditions: 1 μM test compound
[9] = molecular target: recombinant mouse PREP (rmPREP) (Mus musculus (Mouse), UniProt Q9QUR6); test: PREP enzymatic activity assay; assay type: biochemical; conditions: Table 3A
[10] = molecular target: recombinant mouse DPPIV (rmDPPIV) (Mus musculus (Mouse), UniProt P28843); test: DPPIV enzymatic activity assay; assay type: biochemical; conditions: Table 3A
[11] = upon standing in pH 7.8; cyclization; cited from earlier work

Sequence of recombinant human FAPα (rhFAPα) (Q12884 whole entry): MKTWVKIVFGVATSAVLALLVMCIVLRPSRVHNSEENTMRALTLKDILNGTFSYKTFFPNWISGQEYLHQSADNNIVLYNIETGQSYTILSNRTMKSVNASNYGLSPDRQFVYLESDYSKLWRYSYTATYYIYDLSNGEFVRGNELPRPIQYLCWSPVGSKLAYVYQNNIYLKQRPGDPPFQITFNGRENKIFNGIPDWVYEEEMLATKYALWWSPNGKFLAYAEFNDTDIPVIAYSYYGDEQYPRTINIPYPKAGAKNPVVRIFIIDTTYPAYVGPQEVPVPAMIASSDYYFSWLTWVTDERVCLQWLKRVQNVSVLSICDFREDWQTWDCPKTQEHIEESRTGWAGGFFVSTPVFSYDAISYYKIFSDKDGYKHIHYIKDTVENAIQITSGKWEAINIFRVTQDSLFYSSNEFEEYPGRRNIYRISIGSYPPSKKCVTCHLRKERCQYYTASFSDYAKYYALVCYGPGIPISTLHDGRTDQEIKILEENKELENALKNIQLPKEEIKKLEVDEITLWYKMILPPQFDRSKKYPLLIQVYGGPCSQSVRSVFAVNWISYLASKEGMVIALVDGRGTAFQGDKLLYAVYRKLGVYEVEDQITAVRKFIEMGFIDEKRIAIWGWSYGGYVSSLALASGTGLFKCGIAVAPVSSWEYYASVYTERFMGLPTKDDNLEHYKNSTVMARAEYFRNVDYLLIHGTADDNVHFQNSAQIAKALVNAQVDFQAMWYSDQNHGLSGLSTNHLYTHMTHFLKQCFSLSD
T1 sequence (Q86TI2 whole entry): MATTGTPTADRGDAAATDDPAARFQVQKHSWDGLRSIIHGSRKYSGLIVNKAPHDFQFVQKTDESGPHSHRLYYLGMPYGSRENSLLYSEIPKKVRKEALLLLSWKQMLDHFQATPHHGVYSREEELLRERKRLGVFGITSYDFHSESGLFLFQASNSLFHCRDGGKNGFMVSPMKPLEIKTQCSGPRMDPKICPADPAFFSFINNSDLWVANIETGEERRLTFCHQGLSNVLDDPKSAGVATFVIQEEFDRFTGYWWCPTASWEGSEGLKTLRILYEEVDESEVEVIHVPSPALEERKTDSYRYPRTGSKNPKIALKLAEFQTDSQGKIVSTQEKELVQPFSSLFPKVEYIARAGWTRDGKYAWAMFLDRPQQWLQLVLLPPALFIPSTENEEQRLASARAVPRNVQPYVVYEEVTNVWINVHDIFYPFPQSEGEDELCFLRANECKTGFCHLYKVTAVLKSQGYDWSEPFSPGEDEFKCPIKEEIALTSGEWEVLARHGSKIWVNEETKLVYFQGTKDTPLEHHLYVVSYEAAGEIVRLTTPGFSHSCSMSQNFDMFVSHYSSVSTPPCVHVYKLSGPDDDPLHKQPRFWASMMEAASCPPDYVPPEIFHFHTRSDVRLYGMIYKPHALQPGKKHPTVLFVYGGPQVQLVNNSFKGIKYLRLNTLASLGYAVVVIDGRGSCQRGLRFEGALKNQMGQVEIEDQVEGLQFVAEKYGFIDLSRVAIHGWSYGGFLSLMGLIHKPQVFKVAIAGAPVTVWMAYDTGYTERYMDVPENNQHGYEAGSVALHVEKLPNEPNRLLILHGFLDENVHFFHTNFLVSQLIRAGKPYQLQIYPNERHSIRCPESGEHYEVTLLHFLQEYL
Sequence of recombinant human DPPIV (rhDPPIV) (P27487 whole entry): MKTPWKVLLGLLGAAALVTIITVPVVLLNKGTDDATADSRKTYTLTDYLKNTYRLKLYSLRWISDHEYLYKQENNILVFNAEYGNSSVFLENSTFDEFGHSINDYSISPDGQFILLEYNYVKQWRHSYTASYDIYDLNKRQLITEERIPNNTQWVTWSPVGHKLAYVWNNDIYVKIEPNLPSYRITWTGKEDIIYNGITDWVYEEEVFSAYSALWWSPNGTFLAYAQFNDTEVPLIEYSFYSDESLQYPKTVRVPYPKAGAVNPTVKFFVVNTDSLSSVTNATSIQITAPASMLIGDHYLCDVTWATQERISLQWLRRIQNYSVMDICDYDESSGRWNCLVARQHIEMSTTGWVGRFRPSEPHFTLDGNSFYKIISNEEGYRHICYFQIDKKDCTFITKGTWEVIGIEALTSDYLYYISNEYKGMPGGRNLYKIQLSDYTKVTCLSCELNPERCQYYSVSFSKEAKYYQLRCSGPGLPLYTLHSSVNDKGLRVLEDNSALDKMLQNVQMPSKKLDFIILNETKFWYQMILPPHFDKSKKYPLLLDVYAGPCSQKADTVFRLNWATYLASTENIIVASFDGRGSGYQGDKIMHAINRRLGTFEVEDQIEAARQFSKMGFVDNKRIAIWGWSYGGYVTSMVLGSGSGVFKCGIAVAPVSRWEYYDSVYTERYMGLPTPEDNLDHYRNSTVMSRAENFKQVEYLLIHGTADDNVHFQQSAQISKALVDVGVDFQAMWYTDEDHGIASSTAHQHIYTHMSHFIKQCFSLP
Sequence of recombinant human PREP (rhPREP) (P48147 whole entry): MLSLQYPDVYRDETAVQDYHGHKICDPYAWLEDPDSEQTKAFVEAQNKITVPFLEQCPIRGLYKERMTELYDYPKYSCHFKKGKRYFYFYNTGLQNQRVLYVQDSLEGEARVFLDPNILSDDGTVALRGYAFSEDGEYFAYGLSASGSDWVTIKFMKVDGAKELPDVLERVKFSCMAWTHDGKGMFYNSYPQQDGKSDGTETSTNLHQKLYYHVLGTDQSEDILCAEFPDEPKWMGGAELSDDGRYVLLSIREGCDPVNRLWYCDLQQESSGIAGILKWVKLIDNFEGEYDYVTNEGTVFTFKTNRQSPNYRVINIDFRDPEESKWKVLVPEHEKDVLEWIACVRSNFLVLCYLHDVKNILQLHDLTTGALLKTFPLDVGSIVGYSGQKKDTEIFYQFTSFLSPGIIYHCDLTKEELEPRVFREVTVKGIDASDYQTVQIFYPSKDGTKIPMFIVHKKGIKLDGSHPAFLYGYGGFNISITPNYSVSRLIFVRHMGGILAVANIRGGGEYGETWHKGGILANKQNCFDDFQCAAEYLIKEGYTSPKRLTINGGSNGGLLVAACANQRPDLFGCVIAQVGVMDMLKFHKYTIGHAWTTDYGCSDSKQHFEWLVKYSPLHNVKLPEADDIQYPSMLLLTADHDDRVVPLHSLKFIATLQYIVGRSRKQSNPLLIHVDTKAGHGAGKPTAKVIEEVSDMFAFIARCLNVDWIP
Sequence of circulating FAPα from hamster plasma (A0ABM2XF29 1-761): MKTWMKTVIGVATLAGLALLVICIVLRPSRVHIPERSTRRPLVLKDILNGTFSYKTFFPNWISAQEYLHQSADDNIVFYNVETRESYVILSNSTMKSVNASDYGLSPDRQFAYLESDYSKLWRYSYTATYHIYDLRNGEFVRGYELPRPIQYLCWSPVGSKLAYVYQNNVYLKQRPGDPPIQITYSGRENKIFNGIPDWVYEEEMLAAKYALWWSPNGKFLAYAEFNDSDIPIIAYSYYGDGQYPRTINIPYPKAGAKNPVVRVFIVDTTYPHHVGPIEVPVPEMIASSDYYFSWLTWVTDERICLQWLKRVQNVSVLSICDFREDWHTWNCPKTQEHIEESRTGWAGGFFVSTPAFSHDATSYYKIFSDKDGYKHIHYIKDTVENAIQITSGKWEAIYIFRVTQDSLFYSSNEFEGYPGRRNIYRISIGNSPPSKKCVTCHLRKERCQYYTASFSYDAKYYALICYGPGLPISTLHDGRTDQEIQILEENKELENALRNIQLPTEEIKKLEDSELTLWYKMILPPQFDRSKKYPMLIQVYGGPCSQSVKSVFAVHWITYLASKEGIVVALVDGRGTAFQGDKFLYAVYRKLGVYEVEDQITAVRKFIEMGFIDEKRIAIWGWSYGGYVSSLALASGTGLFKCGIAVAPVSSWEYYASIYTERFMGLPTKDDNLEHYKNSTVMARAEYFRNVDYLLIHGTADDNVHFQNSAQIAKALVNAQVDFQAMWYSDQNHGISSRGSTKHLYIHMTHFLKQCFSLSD
Sequence of recombinant mouse FAPα (rmFAPα) (P97321 whole entry): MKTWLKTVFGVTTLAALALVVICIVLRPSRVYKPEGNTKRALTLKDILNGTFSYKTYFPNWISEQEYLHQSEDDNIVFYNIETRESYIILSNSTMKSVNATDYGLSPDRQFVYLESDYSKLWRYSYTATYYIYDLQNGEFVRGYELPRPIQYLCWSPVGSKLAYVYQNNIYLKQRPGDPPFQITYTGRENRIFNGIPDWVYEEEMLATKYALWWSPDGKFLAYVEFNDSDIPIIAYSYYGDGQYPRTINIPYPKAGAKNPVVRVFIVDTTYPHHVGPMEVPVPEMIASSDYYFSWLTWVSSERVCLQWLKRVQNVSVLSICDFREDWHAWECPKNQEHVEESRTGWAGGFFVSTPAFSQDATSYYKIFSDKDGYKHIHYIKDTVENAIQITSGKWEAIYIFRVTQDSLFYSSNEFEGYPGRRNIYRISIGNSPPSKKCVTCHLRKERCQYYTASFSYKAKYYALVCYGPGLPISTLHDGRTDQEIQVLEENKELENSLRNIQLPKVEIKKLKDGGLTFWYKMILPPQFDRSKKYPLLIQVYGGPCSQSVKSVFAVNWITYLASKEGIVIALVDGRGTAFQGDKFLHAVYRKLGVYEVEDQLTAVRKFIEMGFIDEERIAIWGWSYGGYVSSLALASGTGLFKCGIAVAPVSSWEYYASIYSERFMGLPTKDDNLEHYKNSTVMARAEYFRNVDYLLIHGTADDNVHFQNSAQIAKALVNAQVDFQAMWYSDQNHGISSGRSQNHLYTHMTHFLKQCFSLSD

| SMILES | IC50 [2] [µM] | IC50 [5] [µM] | inhibition at 1 µM ([5]; Table 3B) [%] | IC50 [6] [µM] | IC50 [7] [µM] | also measured |
| --- | --- | --- | --- | --- | --- | --- |
| N#C[C@@H]1CC(F)(F)CN1C(=O)CNC(=O)c1ccnc2ccc(-c3ccc(Cl)cc3)cc12 [Compound 2, (S)-6-(4-chlorophenyl)-N-(2-(2-cyano-4,4-difluoropyrrolidin-1-yl)-2-oxoethyl)quinoline-4-carboxamide] | < 1 |  |  |  |  | IC50 ([1]; Homo sapiens, MV4-11, 48 h, read-out: MV4-11 viability IC50, μM): 3 to 10 µM; IC50 [3]: < 1 µM; IC50 [4]: < 1 µM |
| C[C@@H](NC(=O)c1ccncc1-c1ccccc1)C(=O)N1CC(F)(F)C[C@H]1C#N [Compound 126] | > 10 | > 10 | < 25 | > 10 | > 10 |  |
| C[C@H](NC(=O)c1ccncc1-c1ccccc1)C(=O)N1CC(F)(F)C[C@H]1C#N [Compound 127] | > 10 | > 10 | < 25 | > 10 | > 10 |  |
| N#C[C@@H]1CC(F)(F)CN1C(=O)CNC(=O)c1ccnc2ccccc12 [Ref. Comp.] |  |  |  |  |  | rhFAPα (% exo inh @ 1 μM) [5]: +++ (+++ refers to > 50% inhibition at 1 μM test compound); rhFAPα (% exo inh @ 1 μM) ([5]; Table 3B): +++ (+++ refers to > 50% inhibition at 1 μM test compound); rmFAPα (% exo inh @ 1 μM) [8]: +++ (+++ refers to > 50% inhibition at 1 μM test compound); IC50 [9]: > 10 µM; IC50 [10]: > 10 µM |
| CC(C)[C@H](N)C(=O)N1CCC[C@H]1B(O)O [Val-boroPro, reference compound] |  |  |  |  |  | IC50 ([1]; read-out: MV4-11 viability IC50, 48 hours post-treatment, Cell-Titer Glo): < 3 µM; stability of protease inhibitory activity [11]: rapidly loses protease inhibitory activity |
